Patent US8586542B2, “Small molecule apoptosis promoters” (Joyant Pharmaceuticals, Inc., priority 2006, dated 2013)
pIC50: −log10 of the molar value. Read-outs that look alike come from different tables or passages of the source.

Legend:
[1] = tested on: Wap-ras tumors; assay: In vivo therapy in the WAP-RAS transgenic model; parameters: species or system mice; conditions: mimetic 20 mpk po; Paclitaxel 5 mpk ip
Procedure: Mimetic and Paclitaxel combination efficacy is also evaluated in the Wap-ras transgenic model.
Mimetics (20 mpk/dosing po) are dissolved in 20% hydroxyl-propyl-betacyclodexatrin (Vehicle I). 0.2 ml of mimetic solution is the oral dosing volume. Paclitaxel (5 mpk/dosing ip) is dissolved in a diluted ethanol/cremophor EL solution (vehicle II) and the i.p. dosing volume for paclitaxel is 0.1 ml.
The mice are weighed, randomized, and ear-marked on Day 0. Mimetic treatment and Vehicle I treatment is begun on Day 1 and continued every 12 hours until Day 21. Paclitaxel and Vehicle II treatments are started on Day 4 and continued daily on Day 5, 6, and 7.

[2] = target: T1, truncated XIAP containing only BIR1, BIR2, and BIR3 domains (Homo sapiens, UniProt P98170); assay: Fluorescent polarization assay (Bir binding); conditions: competition with 2 nM fluorescein labeled AVPI peptide, room temperature, 1 hour
T1 construct: truncated XIAP containing only BIR1, BIR2, and BIR3 domains
Procedure: Increasing concentrations of Smac compounds are incubated with 2 nM of labeled peptide (fluorescein labeled 10 mer peptide with AVPI 4 amino acids at its N terminus-Alexa Fluor 488) and truncated XIAP containing only BIR1, BIR2, and BIR3 domains at room temperature for 1 hour. Fluorescence reading, indicative of the bound portion of the labeled peptide, is measured in milipolarization units (mP). The more compound added, less fluorescein labeled peptide bind to the protein due to the competitive binding and less fluorescence signal is released.
Based on this principle, we obtain the Ki value that evaluates compound's binding affinity.

[3] = tested on: Caspase3 in Hela S100; assay: In-vitro caspase-3 activation assay in Hela S100 extract; format: biochemical; conditions: 100 nM compound, Hela S100, 1 mM dATP; slope versus control (compound 1 = Caspase std.)
Procedure: Caspase3 in most cell extracts can be activated by the addition of 1 mM dATP through the mitochondria caspase pathway. […] Taking advantage of this feature, we use 100 nM of synthetic Smac mimetic compound to test its ability to eliminate IAPB in the Hela S100 and fully induce Caspase3 activity. The In Vitro Caspase3 assay is carried out at 30° C., incubating 100 nM compounds with 30 ug of Hela S100, 1 mM dATP, 10 uM Caspase3 fluorogenic substrate (Caspase3 Substrate II, Fluorogenic, #235425 from Calbiochem). The readout is caspase-3 activity represented by relative fluorogenic unit, which is recorded kinetically. The slope in linear region of the curve for each compound is calculated.
The ratio of each synthetic compound's slope versus the slope of control reflects in vitro caspase-3 activation ability of compounds.

[4] = tested on: HCC461 cells; assay: Cell viability assay in HCC461 cells (WST-1); format: cell-based; conditions: read-out: HCC461 cell
Procedure: HCC461 cells plated in 96 well plates at 5×10^4/ml cell density are treated with 50× synthetic Smac mimetic compounds (final concentration range between 30 uM and 0.001 uM). After 48 hrs incubation at 37° C. and 5% CO2, viability of the cells are measured using Cell Proliferation Reagent WST-1 assay kit (Roche Cat #11 644 807 001).
The tetrazolium salts are cleaved to formazan by cellular enzymes. An expansion in the number of viable cells results in an increase in the overall activity of mitochondrial dehydrogenases in the samples. This augmentation in the enzyme activity leads to an increase in the amount of formazan dye formed, which directly correlates to the number of metabolically active cells in the culture. Quantification of the formazan dye produced by metabolically active cells by using a microplate (ELISA) reader at 420-480 nm.

[5] = HCC461, 48 hrs incubation, WST-1 viability

T1 sequence (P98170 1-356 limits assumed): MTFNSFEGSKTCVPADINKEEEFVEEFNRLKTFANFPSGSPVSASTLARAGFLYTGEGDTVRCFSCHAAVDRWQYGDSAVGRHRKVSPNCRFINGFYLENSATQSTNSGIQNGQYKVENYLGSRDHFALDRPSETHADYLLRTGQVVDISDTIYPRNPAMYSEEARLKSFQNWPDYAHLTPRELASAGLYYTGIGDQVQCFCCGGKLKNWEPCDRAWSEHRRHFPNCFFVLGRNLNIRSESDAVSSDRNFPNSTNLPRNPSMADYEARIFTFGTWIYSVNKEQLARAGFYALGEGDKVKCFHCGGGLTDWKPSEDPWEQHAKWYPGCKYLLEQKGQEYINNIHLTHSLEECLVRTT

| Bir binding [2] | Caspase % [3] | pIC50 [4, 5] | SMILES | tumor response to treatment, single agent [1] | pIC50 ([4]; HCC461, 48 h) |
| --- | --- | --- | --- | --- | --- |
|  |  |  | CC(=O)O[C@H]1C(=O)[C@@]2(C)[C@H]([C@H](OC(=O)c3ccccc3)[C@]3(O)C[C@H](OC(=O)[C@H](O)[C@@H](NC(=O)c4ccccc4)c4ccccc4)C(C)=C1C3(C)C)[C@]1(OC(C)=O)CO[C@@H]1C[C@@H]2O [Paclitaxel] | do not respond |  |
| 0.19 µM | 113% | 7.70 | CN[C@@H](C)C(=O)N[C@@H](CCCCNC(=O)c1ccc(C(=O)NCCCC[C@H](NC(=O)[C@H](C)NC)C(=O)N2CCC[C@H]2C(=O)N[C@@H]2CCCc3ccccc32)cc1)C(=O)N1CCC[C@H]1C(=O)N[C@@H]1CCCc2ccccc21.Cl.Cl [Compound 49] |  |  |
| 0.2 µM | 105% | 7.70 | CC[C@H](NC)C(=O)N[C@@H](CCCCCC[C@H](NC(=O)[C@H](CC)NC)C(=O)N1CCC[C@H]1C(=O)N[C@@H]1CCCc2ccccc21)C(=O)N1CCC[C@H]1C(=O)N[C@@H]1CCCc2ccccc21 [Compound 10] |  |  |
| 0.3 µM | 59% | 6.70 | CC[C@H](NC)C(=O)N[C@H](C(=O)N1CCCC1)c1ccc(C#CCO[C@H](C)[C@H](NC(=O)[C@H](C)NC)C(=O)N2CCC[C@H]2C(=O)N[C@@H]2CCCc3ccccc32)cc1.Cl.Cl [Compound 37] |  |  |
| 0.11 µM | 55% | 7.60 | CNC(C)C(=O)N[C@@H](CCCCCC[C@H](NC(=O)[C@H](C)NC)C(=O)N1CCC[C@H]1C(=O)NC(c1ccccc1)c1ccccc1)C(=O)N1CCC[C@H]1C(=O)NC(c1ccccc1)c1ccccc1 (stereo partly shown) [Compound 4] |  |  |
| 0.235 µM | 106% | 7.00 | CN[C@@H](C)C(=O)N[C@@H](CC#Cc1ccc([C@H](NC(=O)[C@H](C)NC)C(=O)N2CCC[C@H]2C(=O)N[C@@H]2CCCc3ccccc32)cc1)C(=O)N1CCC[C@H]1C(=O)N[C@@H]1CCCc2ccccc21.Cl.Cl [Compound 26] |  |  |
| 0.15 µM | 85% | 7.52 | CN[C@@H](C)C(=O)N[C@H](C(=O)N1CCCC1)c1ccc(C#CCO[C@H](C)[C@H](NC(=O)[C@H](C)NC)C(=O)N2CCC[C@H]2C(=O)N[C@@H]2CCCc3ccccc32)cc1.Cl.Cl [Compound 40] |  |  |
| 0.13 µM | 106% | 6.09 | CN[C@@H](C)C(=O)N[C@H](C(=O)N1CCC[C@H]1C(=O)N[C@@H]1CCCc2ccccc21)[C@@H](C)OCc1cn(CCn2cc(CO[C@H](C)[C@H](NC(=O)[C@H](C)NC)C(=O)N3CCC[C@H]3C(=O)N[C@@H]3CCCc4ccccc43)nn2)nn1.Cl.Cl [Compound 22] |  |  |
| 1.5 µM | 81% | 5.85 | CN[C@@H](C)C(=O)NC(C(=O)N[C@@H](Cc1cn(C/C=C\Cn2cc(C[C@H](NC(=O)[C@@H](NC(=O)[C@H](C)NC)C(C)(C)C)C(=O)N[C@@H]3CCCc4ccccc43)nn2)nn1)C(=O)N[C@@H]1CCCc2ccccc21)C(C)(C)C.Cl.Cl (stereo partly shown) [Compound 24] |  |  |
| 0.22 µM | 107% | 7.60 | CC[C@H](NC)C(=O)N[C@@H](CC#CC#CC[C@H](NC(=O)[C@H](C)NC)C(=O)N1CCC[C@H]1C(=O)N[C@@H]1CCCc2ccccc21)C(=O)N1CCC[C@H]1C(=O)N[C@@H]1CCCc2ccccc21.Cl.Cl [Compound 16] |  |  |
| 0.18 µM | 104% | 8.52 | CN[C@@H](C)C(=O)N[C@@H](Cc1ccc(OC/C=C\COc2ccc(C[C@H](NC(=O)[C@H](C)NC)C(=O)N3CCCC3C(=O)N[C@@H]3CCCc4ccccc43)cc2)cc1)C(=O)N1CCCC1C(=O)N[C@@H]1CCCc2ccccc21.Cl.Cl (stereo partly shown) [Compound 44] |  |  |
| 0.196 µM | 108% | 8.05 | CC[C@H](NC)C(=O)N[C@@H](CC#CC#CC[C@H](NC(=O)[C@H](CC)NC)C(=O)N1CCC[C@H]1C(=O)N[C@@H]1CCCc2ccccc21)C(=O)N1CCC[C@H]1C(=O)N[C@@H]1CCCc2ccccc21 [Compound 9] |  |  |
| 0.18 µM | 102% | 6.80 | CC[C@H](NC)C(=O)N[C@H](C(=O)N1CCC[C@H]1C(=O)N[C@@H]1CCCc2ccccc21)c1ccc(C#CCO[C@H](C)[C@H](NC(=O)[C@H](C)NC)C(=O)N2CCC[C@H]2C(=O)N[C@@H]2CCCc3ccccc32)cc1.Cl.Cl [Compound 39] |  |  |

| SMILES | Bir binding [2] | Caspase % [3] | pIC50 [4, 5] | tumor response to treatment, single agent [1] | pIC50 ([4]; HCC461, 48 h) |
| --- | --- | --- | --- | --- | --- |
| CN[C@@H](C)C(=O)N[C@@H](CCCCCC[C@H](NC(=O)[C@H](C)NC)C(=O)N1CCC[C@H]1C(=O)N[C@@H]1CCCc2ccccc21)C(=O)N1CCC[C@H]1C(=O)N[C@@H]1CCCc2ccccc21 [Compound 2] | 0.15 µM | 105% |  |  | 8.00 |
